The values below are quoted from earlier work in paper PMC5948259, “A phase I study to assess the mass balance, excretion, and pharmacokinetics of [^14C]-ixazomib, an oral proteasome inhibitor, in patients with advanced solid tumors” (Investigational New Drugs, 2017).

On the set-up of the series: method as in PMID 25011071. Particulars: patients with MM; cited from earlier work.

The structures appear in SMILES notation.

Take `CC(C)C[C@H](NC(=O)[C@H](Cc1ccccc1)NC(=O)c1cnccn1)B(O)O` [bortezomib]: the “Concentrations in whole blood higher than those observed in plasma” value was 3 fold.
